Data reported in the METLIN SMRT retention time set (Domingo-Almenara et al. 2019).

experiment: gradient 5% acetonitrile 3 min, to 50% in 2 min, to 85% in 15 min, held 3 min, 100 µL/min; conditions: column: Zorbax Extend-C18 2.1 x 50 mm; eluents: water / acetonitrile, 0.1% formic acid
Summary of the method: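 Using water and acetonitrile that each contained 0.1% formic acid, mixtures of ~100 pure standards were separated at 100 μL/min on a Zorbax Extend-C18 column (2.1 × 50 mm, 1.8 μm). The HPLC fed a quadrupole time-of-flight mass spectrometer working in positive and negative ionization mode, with dead and dwell volumes of 40 μL and 900 μL. Data were acquired over 3 months. Retention time was read from computationally picked adduct peaks after manual inspection of each.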

RP-LC retention time | SMILES
1130 s | CCc1nc(-c2csc(S(=O)(=O)N3CCCC(C(=O)Nc4cc(C)ccc4OC)C3)c2)no1 (configuration not stated)
842 s | CCN1C(=O)COc2ccc(-c3noc(CNS(=O)(=O)c4ccccc4)n3)cc21
1050 s | COc1ccc(-c2noc(Cn3c(=O)n(CC(C)C)c(=O)c4ccccc43)n2)cc1OC
780 s | Cc1ccc(-n2c(=O)n(CC(=O)N3CCCCC3)c3cccnc32)cc1
952 s | Cc1ccc(-n2c(=O)c3c(cc(C)n3C)n(CC(=O)Nc3cc(Cl)ccc3C)c2=O)cc1
1020 s | Cc1ccccc1-n1c(-c2ccc(Cl)cc2)cn2c3c(=O)n(C)c(=O)n(C)c3nc12
671 s | Cc1cccn2cc(-c3cccc(S(=O)(=O)N4CC(C)OC(C)C4)c3)nc12 (configuration not stated)
644 s | O=S(=O)(c1ccccc1F)N1CCC2(CCN(c3cccnc3)C2)C1 (configuration not stated)
787 s | O=C(Cn1nc(Cc2ccncc2)c2ccccc2c1=O)N1CCOCC1
748 s | O=C(Cn1cc(S(=O)(=O)c2ccc(F)cc2)c2ccccc21)NC1CC1
950 s | CCn1cc(S(=O)(=O)N2CCc3ccccc3C2)c2cccnc21
945 s | COC(=O)c1cn(Cc2ccc(OC)c(F)c2)nc1S(=O)(=O)N1CCCCC1
834 s | CC(=O)c1c(N(C)CCO)nc2ccc(Cl)cc2c1-c1ccccc1
1010 s | O=S(=O)(c1ccccc1)N1CCc2nc(-c3ccccc3)ncc2C1
796 s | Cc1cc2nn(CC(=O)Nc3ccccc3C)c(=O)n2c(-c2ccc(F)cc2)n1
601 s | O=C(Cn1ccnc1-c1ccnc(N2CCCC2)c1)NCc1ccc(Cl)cc1
816 s | Cc1cccc(NS(=O)(=O)c2cc3n(c2)CCN(C(C)C)C3=O)c1C
669 s | Cc1cccc2nnc(N3CCCC(C(=O)Nc4ccc5c(c4)OCCO5)C3)n12 (configuration not stated)
1000 s | Cc1ccc(-c2noc(Cn3ccn(-c4c(C)cccc4C)c(=O)c3=O)n2)cc1C
731 s | CC(=O)Nc1nsc(N2CCC(C(=O)N3CCN(c4cccc(Cl)c4)CC3)CC2)n1

RP-LC retention time | SMILES
924 s | COc1ccccc1C(=O)Nc1nc(-c2ccc3c(c2)NC(=O)C(C)O3)cs1 (configuration not stated)
883 s | CC(C)c1ccc(NC(=O)C2CCN(S(=O)(=O)c3ccc4c(c3)CCCC(=O)N4)CC2)cc1
1070 s | COc1ccc(NC(=O)N2CCCC2c2nc(-c3cccc(Cl)c3)no2)c(OC)c1 (configuration not stated)
723 s | CCc1noc(NC(C)=O)c1-c1ccc(C)c(S(=O)(=O)N2CCN(c3ccccc3F)CC2)c1
774 s | O=C1N(c2cccc(F)c2)C(c2ccccc2)C12CCN(Cc1cccc(F)c1O)CC2 (configuration not stated)
1030 s | CCOc1ccccc1-c1csc(NC(=O)c2sc(COc3cc(C)ccc3C)nc2C)n1
1100 s | O=S(=O)(Cc1ccc(F)cc1Cl)N1CCc2nc(-c3ccc(F)cc3)ncc2C1
860 s | CCS(=O)(=O)N1CC(=O)N(c2ccc(C)c(C)c2)C(C)(C(=O)NCc2ccccc2)C1 (configuration not stated)
1030 s | COc1ccccc1N1CCN(c2cc(SCC(=O)Nc3cccc(C)c3C)ncn2)CC1
1330 s | CC(C)(C)c1csc(-c2csc(S(=O)(=O)Nc3cccc(Cl)c3F)c2)n1
1030 s | Cc1ccc(S(=O)(=O)c2cnc(N3CCN(C(=O)OC(C)(C)C)CC3)nc2N)cc1
690 s | CN(C)c1cccc(C(=O)N2CCN(c3cc(-c4ccccc4)[nH]n3)CC2)c1
642 s | COc1ccc(C(O)CN2CCN(c3ccccc3F)CC2)cc1OC (configuration not stated)
663 s | O=S(=O)(c1cccn2c(SCc3ccncc3)nnc12)N1CCN(c2ccc(F)cc2)CC1
797 s | Cc1cc(=O)n(CC(=O)Nc2cccc(Cl)c2)c(N(C)Cc2ccccc2)n1
1320 s | Cc1ccc(-c2csc(NC(=O)COc3c(C)ccc(C)c3C)n2)cc1
934 s | CCOc1ccc(S(=O)(=O)N2CCC(C(=O)N(CC)CC)CC2)cc1C
1270 s | Cc1ccc(S(=O)(=O)N2CCCC2c2nc(-c3cccc(Cl)c3)no2)cc1C (configuration not stated)
895 s | COC(=O)C1=CN(c2ccc(F)cc2C)c2cc(F)ccc2S1(=O)=O
696 s | CCN1CCn2cc(S(=O)(=O)Nc3ccc(F)cc3)cc2C1=O

Continued, compound first:

SMILES | RP-LC retention time
CCn1cc(C(=O)N[C@@H](C)C(=O)O)c(=O)c2cc3c(cc21)OCO3 | 631 s
O=C(CSCCc1ccccn1)Nc1c(F)c(F)c(F)c(F)c1F | 643 s
Cc1ccc(-c2nnc(SCC(=O)N3CCC(C)CC3)o2)cc1 | 986 s
O=C(C1CCCN(c2ncnc3c2nc2n3CCCCC2)C1)N1CCN(c2ccccc2)CC1 (configuration not stated) | 803 s
O=C(NCCCOc1cccc2cccnc12)c1cc(=O)c2ccccc2o1 | 648 s
CN1C(=O)C(C)(C(=O)Nc2ccccc2)Oc2cccnc21 (configuration not stated) | 788 s
Cc1nc(C2CCOCC2)n(C2CCN(S(=O)(=O)c3ccccc3Cl)C2)n1 (configuration not stated) | 740 s
CCOC(=O)c1ncoc1-c1ccccc1C(=O)NC1CCCCC1 | 770 s
O=S(=O)(NC1CCCCCC1)c1ccc2c(c1)-c1oncc1CO2 | 1000 s
O=C(NCC1(CO)CC1)c1c(F)cccc1Cl | 609 s
CC(C)NC(=O)c1ccc2c(c1)nc(CN1CCN(C(=O)NC3CCCCC3)CC1)n2C | 577 s
Cc1nc(C)c(C(=O)N2CCCC2c2nc(CCOCC3CC3)no2)s1 (configuration not stated) | 732 s
CCc1ccc(-n2c(-c3ccc(Cl)cc3)cn3c4c(=O)n(C)c(=O)n(C)c4nc23)cc1 | 1150 s
COC(=O)[C@@H]1[C@H]2C[C@@H]3c4[nH]c5ccccc5c4CCN3C[C@@H]2CC[C@@H]1O | 660 s
Cc1nc(C)c(C(=O)NCC23CCC=C2N(C)C(=O)CC3)s1 (configuration not stated) | 651 s
CCCn1ccc2sc(C)c(C(=O)NCc3ccc(C)cc3)c2c1=O | 948 s
COc1ccc(CCNC(=O)c2ccco2)cc1OC | 642 s
COc1cc2c(Nc3ccc(NC(=O)c4ccccc4)cc3)ncnc2cc1OCCCN1CCOCC1 | 627 s
COc1ccc(OCC(=O)N2CCC(Nc3cccnc3)C2)cc1 (configuration not stated) | 726 s
O=C(Nc1nc(-c2cccc([N+](=O)[O-])c2)cs1)c1cccc(Br)c1 | 1170 s
CCc1nnc(NC(=O)C2CCCN(c3ncnc4c3nc3n4CCCCC3)C2)s1 (configuration not stated) | 724 s
O=C(CCc1nc2ccccc2s1)N1C[C@H]2CNC(=O)[C@]23CCCC[C@@H]13 | 705 s
O=C(NC1CCCCC1)c1ccc2c(c1)CCN2C(=O)C1CC1 | 824 s
O=C(NCc1ccco1)C(=O)NCC1OCCN1C(=O)c1ccc(Cl)cc1 (configuration not stated) | 705 s

SMILES | RP-LC retention time
O=C(Cc1ccc([N+](=O)[O-])cc1)NCc1ccc2[nH]c3c(c2c1)CCCC3 | 849 s
O=c1n(Cc2nc(-c3ccc4c(c3)OCO4)no2)nc2ccc(-c3ccccc3)nn12 | 843 s
CCn1c(=O)n(-c2ccc(F)cc2)c2nc(-c3ccc(F)cc3F)nc(C(N)=O)c21 | 1000 s
O=C(Nc1ccc(Cl)cc1)N1CCN(CCn2cnc3cccnc32)CC1 | 604 s
CCn1nc(C)c(-c2cc(C(=O)NCC34CCC=C3N(C)C(=O)CC4)no2)c1C (configuration not stated) | 741 s
CN(CC1(C)CCOCC1)S(=O)(=O)c1ccc(F)c(F)c1 | 910 s
O=C(NCc1nc(-c2cccc(-c3ccn[nH]3)c2)no1)c1ccccc1 | 741 s
C=CCc1cc(OC)c(O)c(C(=O)NCCO)c1 | 735 s
COc1ccc(C)cc1N1C(=O)CC(N2CCC(C(N)=O)CC2)C1=O (configuration not stated) | 590 s
Cc1c(C(=O)N2CCCC(C)C2)cnn1-c1ccc(-c2nc(C(C)(C)C)no2)cn1 (configuration not stated) | 1230 s
CCCCNC(=O)C1CCN(C(=O)Nc2ccc(NC(=O)Nc3ccccc3)cc2)CC1 | 729 s
O=C(Cn1nc2ccc(C(=O)NCc3ccccc3)cn2c1=O)NC1CCCC1 | 702 s
O=C(Nc1ccc(-n2cnc(C(=O)N3CCC(Cc4ccccc4)CC3)c2)nc1)C1CC1 | 860 s
CON(C)C(=O)C1CN(C(=O)COc2ccccc2F)C1 | 629 s
Cc1ccc2c(C(=O)N3CCC(C)CC3)cc(NC(=O)C3CCC3)cc2n1 | 652 s
Cc1ccc(CNC(=O)c2cc3n(n2)CC(C)(C(=O)NCc2ccc(C)cc2)N(C)C3=O)cc1 (configuration not stated) | 823 s
CN(C)C(=O)c1csc(S(=O)(=O)N2CCC(C(=O)NC3CCCCCC3)CC2)c1 | 783 s
CCCCC(=O)Nc1nc(-c2ccc(C)cc2C)cs1 | 1100 s
O=C(NC1CCCC1)N1CC(Oc2ccc(-c3nc(-c4ccccc4)no3)cc2)C1 | 1080 s
COc1ccc(CCc2nc3nccc(-c4ccsc4)n3n2)cc1 | 946 s
O=C(O)c1ccc(Nc2nc(-c3ccc(Br)cc3)cs2)cc1 | 989 s
O=C(CC(=O)N1CCN(C2CCCCC2)CC1)Nc1ccc2nc3n(c(=O)c2c1)CCCCC3 | 554 s
O=C(Cc1ccc(Cl)cc1)Nc1nnc(SCc2nnc(-c3ccccc3)o2)s1 | 955 s
